Target: T1, human MC5R (hMC5R) (Homo sapiens, UniProt P33032)
T1 construct: purchased Perkin Elmer RBXMC5M400UA
Assay: Human MC5R radioligand binding assay (membranes, [125I] NDP-MSH displacement)
Settings: hMC5R binding; tested as trifluoroacetate or hydrochloride salts, or free bases; read-out: MC5R radioligand IC50
Protocol: Assessments of compound binding to human MC5R (hMC5R) ) by displacement of an ^125I-labeled NDP-MSH receptor ligand peptide were performed essentially as described in the data sheets produced by Perkin Elmer to accompany their frozen hMC5R membranes (Perkin Elmer catalog number RBXMC5M400UA).
[^125I] NDP-MSH: radiolabeled in house and purified by HPLC:
• Na^125I (0.5 mCi, 17.4 Ci/mg) was added to 50 μL sodium phosphate (50 mM, pH7.4) in an eppendorf tube precoated with IODOGEN. After incubation for 10 mins the phosphate buffer containing the iodine was added to NDP-MSH (10 ul at 1 mg/mL) in a separate eppendorf tube. This was incubated for a further 10 mins. The iodinated NDP-MSH was purified by HPLC on a Zorbax SB 300 column using solvent A: 0.05% TFA and solvent B: 90% acetonitrile 0.045% TFA with a linear gradient, 0-67% B over 60 mins. […] Resuspended membranes were kept on ice until they were added to the wells of the plate. Binding Protocol for 400 microassays per vial: • Assays were performed in 96 well polypropylene plates. […] This was incubated for 1 hr at 37° C.

T1 sequence (P33032 whole entry): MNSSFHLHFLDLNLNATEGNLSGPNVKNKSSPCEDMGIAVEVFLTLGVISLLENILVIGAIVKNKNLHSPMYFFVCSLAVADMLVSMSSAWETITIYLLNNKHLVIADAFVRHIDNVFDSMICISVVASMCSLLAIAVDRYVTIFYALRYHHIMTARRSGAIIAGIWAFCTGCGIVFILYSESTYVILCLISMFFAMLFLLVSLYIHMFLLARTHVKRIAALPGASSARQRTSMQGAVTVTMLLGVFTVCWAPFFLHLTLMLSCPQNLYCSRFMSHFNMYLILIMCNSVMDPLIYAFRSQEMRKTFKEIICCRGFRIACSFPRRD

SMILES	IC50
CC[C@H](CN1CC[C@@H](CNC(=O)c2ccc3cc(Cl)ccc3c2)N[C@@H](CCNC(=N)N)C1=O)c1ccccc1 [Compound 457, 6-chloro-N-(((3S,5S)-3-(2-guanidinoethyl)-2-oxo-1-((S)-2-phenylbutyl)-1,4-diazepan-5-yl)methyl)-2-naphthamide]	< 100 nM
NCCC[C@@H]1N[C@H](CNC(=O)c2ccc3ccccc3c2)CCN(Cc2ccc(Cl)cc2)C1=O [Compound 323, N-(((3S,5S)-3-(3-aminopropyl)-1-(4-chlorobenzyl)-2-oxo-1,4-diazepan-5-yl)methyl)-2-naphthamide]	< 10000 nM
CC[C@H](CN1CC[C@@H](CNC(=O)c2ccc3cc(Cl)ccc3c2)N[C@@H](CCN2CCCCCC2)C1=O)c1ccccc1 [Compound 493, N-(((3S,5S)-3-(2-(azepan-1-yl)ethyl)-2-oxo-1-((S)-2-phenylbutyl)-1,4-diazepan-5-yl)methyl)-6-chloro-2-naphthamide]	< 100 nM
CC[C@H](CN1CC[C@@H](CNC(=O)c2ccc(Cl)c(Cl)c2)N[C@@H](CCNC(C)C(F)(F)F)C1=O)c1ccccc1 (stereo partly drawn) [Compound 491, 3,4-dichloro-N-(((3S,5S)-2-oxo-1-((S)-2-phenylbutyl)-3-(2-(1,1,1-trifluoropropan-2-ylamino)ethyl)-1,4-diazepan-5-yl)methyl)benzamide]	< 1000 nM
CC[C@@H](CN1CC[C@@H](CNC(=O)c2ccc(Cl)c(Cl)c2)N[C@@H](CCN2CCCCC2)C1=O)C(C)C [Compound 461, 3,4-dichloro-N-(((3S,5S)-1-((R)-2-ethyl-3-methylbutyl)-2-oxo-3-(2-(piperidin-1-yl)ethyl)-1,4-diazepan-5-yl)methyl)benzamide]	< 100 nM
CCC(CN1CC[C@@H](CNC(=O)c2ccc3ccccc3c2)N[C@@H](CCCN)C1=O)c1ccccc1 (stereo partly drawn) [Compound 324, N-(((3S,5S)-3-(3-aminopropyl)-2-oxo-1-(2-phenylbutyl)-1,4-diazepan-5-yl)methyl)-2-naphthamide]	< 1000 nM
N=C(N)NCCC[C@@H]1N[C@H](CNC(=O)/C=C/c2ccccc2O)CCN(CC(c2ccccc2)c2ccccc2)C1=O [Compound 189, (E)-N-(((3S,5S)-1-(2,2-diphenylethyl)-3-(3-guanidinopropyl)-2-oxo-1,4-diazepan-5-yl)methyl)-3-(2-hydroxyphenyl)acrylamide]	< 1000 nM
O=C(O)c1ccc2cc(C(=O)NC[C@@H]3CCN(CC(c4ccccc4)c4ccccc4)C(=O)[C@H](CCN4CCCCC4)N3)ccc2c1 [Compound 473, 6-(((3S,5S)-1-(2,2-diphenylethyl)-2-oxo-3-(2-(piperidin-1-yl)ethyl)-1,4-diazepan-5-yl)methylcarbamoyl)-2-naphthoic acid]	< 1000 nM
CC[C@H](CN1CC[C@@H](CNC(=O)c2ccc3cc(Cl)ccc3c2)N[C@@H](CCNC(=O)NC(C)C)C1=O)c1ccccc1 [Compound 494, 6-chloro-N-(((3S,5S)-3-(2-(3-isopropylureido)ethyl)-2-oxo-1-((S)-2-phenylbutyl)-1,4-diazepan-5-yl)methyl)-2-naphthamide]	< 1000 nM
CC[C@H](CN1CC[C@@H](CNC(=O)c2ccc3cc(Cl)ccc3c2)N[C@@H](CC(C)(C)N)C1=O)c1ccccc1 [Compound 463, N-(((3S,5S)-3-(2-amino-2-methylpropyl)-2-oxo-1-((S)-2-phenylbutyl)-1,4-diazepan-5-yl)methyl)-6-chloro-2-naphthamide]	< 1000 nM
CC[C@H](CN1CC[C@@H](CNC(=O)c2ccc(Cl)c(Cl)c2)N[C@@H](CCN2C(=O)CCC2=O)C1=O)c1ccccc1 [Compound 489, 3,4-dichloro-N-(((3S,5S)-3-(2-(2,5-dioxopyrrolidin-1-yl)ethyl)-2-oxo-1-((S)-2-phenylbutyl)-1,4-diazepan-5-yl)methyl)benzamide]	< 10000 nM
NCC[C@@H]1N[C@H](CNC(=O)c2ccc3cc(Cl)ccc3c2)CCN(Cc2ccc(Cl)cc2Cl)C1=O [Compound 507, N-(((3S,5S)-3-(2-aminoethyl)-1-(2,4-dichlorobenzyl)-2-oxo-1,4-diazepan-5-yl)methyl)-6-chloro-2-naphthamide]	< 100 nM
CC(C)c1ccc(/C=C/C(=O)NC[C@@H]2CCN(CC(c3ccccc3)c3ccccc3)C(=O)[C@H](CCN)N2)cc1 [Compound 397, (E)-N-(((3S,5S)-3-(2-aminoethyl)-1-(2,2-diphenylethyl)-2-oxo-1,4-diazepan-5-yl)methyl)-3-(4-isopropylphenyl)acrylamide]	< 1000 nM
CC[C@H](CN1CC[C@@H](CNC(=O)c2ccc(Cl)c(Cl)c2)N[C@@H](CCNC(C)(C)C)C1=O)c1ccccc1 [Compound 430, N-(((3S,5S)-3-(2-(tert-butylamino)ethyl)-2-oxo-1-((S)-2-phenylbutyl)-1,4-diazepan-5-yl)methyl)-3,4-dichlorobenzamide]	< 100 nM
CC1CC(C)CC(CN2CC[C@@H](CNC(=O)c3ccc(Cl)c(Cl)c3)N[C@@H](CCN3CCCCC3)C2=O)C1 (stereo partly drawn) [Compound 386, 3,4-dichloro-N-(((3S,5S)-1-((3,5-dimethylcyclohexyl)methyl)-2-oxo-3-(2-(piperidin-1-yl)ethyl)-1,4-diazepan-5-yl)methyl)benzamide]	< 100 nM
CC(C)NCC[C@@H]1N[C@H](CNC(=O)c2ccc3ccccc3c2)CCN(CC(c2ccccc2)c2ccccc2)C1=O [Compound 382, N-(((3S,5S)-1-(2,2-diphenylethyl)-3-(2-(isopropylamino)ethyl)-2-oxo-1,4-diazepan-5-yl)methyl)-2-naphthamide]	< 1000 nM
NCCC[C@@H]1N[C@H](CNC(=O)c2ccc3ccccc3c2)CCN(CC2(c3ccccc3)CCCCC2)C1=O [Compound 325, N-(((3S,5S)-3-(3-aminopropyl)-2-oxo-1-((1-phenylcyclohexyl)methyl)-1,4-diazepan-5-yl)methyl)-2-naphthamide]	< 1000 nM
O=C(NC[C@@H]1CCN(Cc2cc(Cl)cc(Cl)c2)C(=O)[C@H](CCN2CCCCC2)N1)c1ccc2cc(Cl)ccc2c1 [Compound 467, 6-chloro-N-(((3S,5S)-1-(3,5-dichlorobenzyl)-2-oxo-3-(2-(piperidin-1-yl)ethyl)-1,4-diazepan-5-yl)methyl)-2-naphthamide]	< 100 nM
N=C(N)NCCC[C@@H]1N[C@H](CNC(=O)c2ccc3ccccc3c2)CCN(CC(c2ccc(F)cc2)c2ccc(F)cc2)C1=O [Compound 250, N-(((3S,5S)-1-(2,2-bis(4-fluorophenyl)ethyl)-3-(3-guanidinopropyl)-2-oxo-1,4-diazepan-5-yl)methyl)-2-naphthamide]	< 100 nM
CC[C@@H](CN1CC[C@@H](CNC(=O)c2ccc3cc(Cl)ccc3c2)N[C@@H](CCN2CCCCC2)C1=O)C(C)C [Compound 471, 6-chloro-N-(((3S,5S)-1-((R)-2-ethyl-3-methylbutyl)-2-oxo-3-(2-(piperidin-1-yl)ethyl)-1,4-diazepan-5-yl)methyl)-2-naphthamide]	< 100 nM
O=C(NC[C@@H]1CCN(Cc2cc(Cl)cc(Cl)c2)C(=O)[C@H](CCN2CCCCC2)N1)c1ccc(Cl)cc1Cl [Compound 528, 2,4-dichloro-N-(((3S,5S)-1-(3,5-dichlorobenzyl)-2-oxo-3-(2-(piperidin-1-yl)ethyl)-1,4-diazepan-5-yl)methyl)benzamide]	< 10 nM
O=C(CCc1ccc(Cl)cc1)NC[C@@H]1CCN(CC(c2ccccc2)c2ccccc2)C(=O)[C@H](CCN2CCCCC2)N1 [Compound 391, 3-(4-chlorophenyl)-N-(((3S,5S)-1-(2,2-diphenylethyl)-2-oxo-3-(2-(piperidin-1-yl)ethyl)-1,4-diazepan-5-yl)methyl)propanamide]	< 100 nM
NCCC[C@@H]1N[C@H](CNC(=O)c2ccc3ccccc3c2)CCN(Cc2cc(F)cc(F)c2)C1=O [Compound 313, N-(((3S,5S)-3-(3-aminopropyl)-1-(3,5-difluorobenzyl)-2-oxo-1,4-diazepan-5-yl)methyl)-2-naphthamide]	< 10000 nM
NCC[C@@H]1N[C@H](CNC(=O)c2cccc(C(F)(F)F)c2)CCN(CC(c2ccccc2)c2ccccc2)C1=O [Compound 437, N-(((3S,5S)-3-(2-aminoethyl)-1-(2,2-diphenylethyl)-2-oxo-1,4-diazepan-5-yl)methyl)-3-(trifluoromethyl)benzamide]	< 10000 nM
O=C(NC[C@@H]1CCN(CC(c2ccccc2)c2ccccc2)C(=O)[C@H](CCCN2CCCCC2)N1)c1ccc2cc(F)ccc2c1 [Compound 359, N-(((3S,5S)-1-(2,2-diphenylethyl)-2-oxo-3-(3-(piperidin-1-yl)propyl)-1,4-diazepan-5-yl)methyl)-6-fluoro-2-naphthamide]	< 100 nM
CCC(C)(CC)CN1CC[C@@H](CNC(=O)c2ccc3cc(Cl)ccc3c2)N[C@@H](CCN2CCCCC2)C1=O [Compound 513, 6-chloro-N-(((3S,5S)-1-(2-ethyl-2-methylbutyl)-2-oxo-3-(2-(piperidin-1-yl)-ethyl)-1,4-diazepan-5-yl)methyl)-2-naphthamide]	< 100 nM
CC[C@H](CN1CC[C@@H](CNC(=O)c2ccc3cc(Cl)ccc3c2)N[C@@H](CNC(C)C)C1=O)c1ccccc1 [Compound 499, 6-chloro-N-(((3S,5S)-3-((isopropylamino)methyl)-2-oxo-1-((S)-2-phenylbutyl)-1,4-diazepan-5-yl)methyl)-2-naphthamide]	< 100 nM
N=C(N)NCCC[C@@H]1N[C@H](CNC(=O)c2ccc3ccccc3c2)CCN(CC2c3ccccc3-c3ccccc32)C1=O [Compound 227, N-(((3S,5S)-1-((9H-fluoren-9-yl)methyl)-3-(3-guanidinopropyl)-2-oxo-1,4-diazepan-5-yl)methyl)-2-naphthamide]	< 10000 nM

— US8008291B2 (Mimetica Pty Ltd, priority 2008, dated 2011)
